Experimental data published in patent US7488738B2, “Aminophenoxyacetic acid derivatives and pharmaceutical composition containing thereof” (Asubio Pharma Co., Ltd., priority 1998, dated 2009).

Tested on: cells of cerebral cortex
Test: Cytoprotective effect against glutamate induced cell death (MTT)
Type: cell-based, rats of Wister strain
Details: compound 1 μM added 24 h before 1 mM glutamate, fetal rat cerebral cortex cells, control group = 100%; for viability at 1 µM: read-out: Survival Rate (%) (Compound: 1 μM)
Protocol: Biological Test 1: Cytoprotective Effect Against Glutamate Induced Cell Death
In accordance with the method of M. P. Mattoson [M. P. Mattoson, Brain Res. Rev., 13, 179 (1988)], brain of 18-days fetus rats of Wister strain were taken out. Then, cells of cerebral cortex (4×10^5 cells/ml) were seeded on poly-L-lysine coated 96 wells flat bottom plate (Sumitomo Bakelite Co., Ltd.) in concentration of 4×10^4 cells/each well. After 48 hours of incubation, 1 μM of test compounds were added, then after further 24 hours, 1 mM of glutamate were further added for inducing the cell injury. 12 hours after adding glutamate, MTT [3-(4,5-dimethylthiazol)-2,5-diphenyltetrazolium bromide] was added and incubated for 6 hours.
After incubation, 200 μl of dimethy sulfoxide was added to each wells, and the amounts of reduced MTT were calorimetrically analyzed by Micro ELISA Reader using 570 nm of main-wavelength and 650 nm of sub-wavelength.
The effect of the test compounds was determined as the survival rate of living cells (%) according to the following equation: Survival rate of living cells (%)=[(test compound group−glutamate treated group)÷(control group−glutamate treated group)]×100
That is, the survival rate of living cells after incubation of the control group was converted to 100%, and the survival data of living cells of the tested compounds was shown in Table II.

Row | Structure (SMILES) | viability at 1 µM [%] | Survival Rate (%) (Compound: 1 μM)
1 | Cc1cc(C)c(NCC(=O)N(C)C2CCN(CC3CC3)CC2)c(C)c1N [Compound 129, 2-(3-Amino-2,4,6-trimethylanilino)-N-[1-(cyclopropylmethyl)-4-piperidinyl]-N-methylacetamide] | 64 | –
2 | Cc1cc(OC(C)C(=O)N(C)C2CCN(CC(=O)Nc3c(C)cccc3C)CC2)c(C)c(C)c1N (stereo not drawn) [Compound 61, 2-(4-Amino-2,3,5-trimethylphenoxy)-N-[1-(2-(2,6-dimethylanilino)-2-oxyethyl)-4-piperidinyl]-N-methylpropamide] | – | 58
3 | Cc1cc(OC(C)(C)C(=O)N(C)C2CCN(CC(=O)Nc3ccccc3C(C)(C)C)CC2)c(C)c(C)c1N [Compound 49, 2-(4-Amino-2,3,5-trimethylphenoxy)-2-methyl-N-[1-(2-tert-butylanilino-2-oxyethyl)-4-piperidinyl]-N-methylpropamide] | – | 193
4 | Cc1cc(C)c(NCC(=O)N(C)C2CCN(CC(O)COc3ccccc3)CC2)c(C)c1N (stereo not drawn) [Compound 126, 2-(3-Amino-2,4,6-tirmethylanilino)-N-[1-(2-hydroxy-3-phenoxy)propyl-4-piperidinyl]-N-methylacetamide] | – | 47
5 | Cc1cc(OCC(=O)N(C)C2CCN(CC(=O)Nc3cc(Cl)c(N)cc3Cl)CC2)c(C)c(C)c1N [Compound 89, 2-(4-Amino-2,3,5-trimethylphenoxy)-N-[1-(2-(4-amino-2,5-dichloro)anilino-2-oxyethyl)-4-piperidinyl]-N-methylacetamide] | – | 126
6 | Cc1cc(OCC(=O)NC2CCN(CC3(c4ccccc4)CC3)CC2)c(C)c(C)c1N [Compound 96, 2-(4-Amino-2,3,5-trimethylphenoxy)-N-[1-(1-phenyl-1-cyclopropane)methyl-4-piperidinyl]acetamide] | – | 91
7 | CCN(C(=O)CNc1c(C)c(C)c(N)c(C)c1C)C1CCN(C[C@@H]2C[C@H]2c2ccccc2)CC1 (relative stereo) [Compound 94, 2-(4-Amino-2,3,5,6-tetramethylanilino)-N-ethyl-N-[1-(trans-2-phenyl-1-cyclopropylmethyl)-4-piperidinyl]acetamide] | 198 | –
8 | Cc1cc(OCC(=O)N(C)C2CCN(CC(=O)N[C@@H]3C[C@H]3c3ccccc3)CC2)c(C)c(C)c1N (relative stereo) [Compound 66] | – | 60
9 | Cc1c(C)c(OCC(=O)N(C)C2CCN(CC(=O)Nc3cc(Cl)c(N)cc3Cl)CC2)c(Cl)c(C)c1N [Compound 92, 2-(4-Amino-2-chloro-3,5,6-trimethylphenoxy)-N-[1-(2-(4-amino-2,5-dichloro)anilino-2-oxyethyl)-4-piperidinyl]-N-methylacetamide] | – | 66
10 | CN(C(=O)CNc1c(Cl)cc(N)cc1Cl)C1CCN(CC(=O)Nc2ccccc2)CC1 [Compound 139, 2-(4-Amino-2,6-dichloroanilino)-N-[1-(2-anilino-2-oxyethyl)-4-piperidinyl]-N-methylacetamide] | – | 53
11 | Cc1cc(OC(C)C(=O)N(C)C2CCN(C/C=C/c3ccccc3)CC2)c(C)c(C)c1N (stereo not drawn) [Compound 62, 2-(4-Amino-2,3,5-trimethylphenoxy)-N-methyl-N-[1-(3-phenyl-2-(E)-propenyl)-4-piperidinyl]propamide] | – | 63
12 | CCN(C(=O)C(C)Oc1cc(C)c(N)c(C)c1C)C1CCN(C/C=C/c2ccccc2)CC1 (stereo not drawn) [Compound 77, 2-(4-Amino-2,3,5-trimethylphenoxy)-N-ethyl-N-[1-(3-phenyl-2-(E)-propenyl)-4-piperidinyl]propamide] | – | 111
13 | Cc1cc(OCC(=O)N(C)C2CCN(Cc3ccc4ccccc4n3)CC2)c(C)c(C)c1N [Compound 44, 2-(4-Amino-2,3,5-trimethylphenoxy)-N-methyl-N-[1-(2-quinolylmethyl)-4-piperidinyl]acetamide] | 93 | –
14 | Cc1cc(OC(C)C(=O)NC2CCN(C[C@@H]3C[C@H]3c3ccccc3)CC2)c(C)c(C)c1N (relative stereo) [Compound 106, 2-(4-Amino-2,3,5-trimethylphenoxy)-N-[1-(trans-2-phenyl-1-cyclopropylmethyl)-4-piperidinyl]propamide] | – | 151
15 | Cc1cc(C)c(NCC(=O)N(C)C2CCN(Cc3ccccc3)CC2)c(C)c1N [Compound 131, 2-(3-Amino-2,4,6-trimethylanilino)-N-(1-benzyl-4-piperidinyl)-N-methylacetamide] | 65 | –
16 | Cc1c(C)c(OCC(=O)NC2CCN(CC(=O)Nc3ccccc3)CC2)c(Cl)c(C)c1N [Compound 91, 2-(4-Amino-2-chloro-3,5,6-trimethylphenoxy)-N-[1-(2-anilino-2-oxyethyl)-4-piperidinyl]acetamide] | – | 203
17 | CCN(C(=O)C(C)Oc1cc(C)c(N)c(C)c1C)C1CCN(CC2(c3ccccc3)CC2)CC1 (stereo not drawn) [Compound 87, 2-(4-Amino-2,3,5-trimethylphenoxy)-N-ethyl-N-[1-(1-phenyl-1-cyclopropane)methyl-4-piperidinyl]propamide] | – | 81
18 | Cc1cc(OC(C)(C)C(=O)NC2CCN(CC(=O)Nc3ccccc3C(C)(C)C)CC2)c(C)c(C)c1N [Compound 100, 2-(4-Amino-2,3,5-trimethylphenoxy)-2-methyl-N-[1-(2-(2-tert-butylanilino)-2-oxyethyl)-4-piperidinyl]propamide] | – | 138
19 | Cc1c(C)c(NCC(=O)N(C)C2CCN(Cc3ccc(C(N)=O)cc3)CC2)c(C)c(C)c1N [Compound 116] | – | 59
20 | CCN(C(=O)COc1cc(C)c(N)c(C)c1C)C1CCN(CC(=O)Nc2ccccc2)CC1 [Compound 71, 2-(4-Amino-2,3,5-trimethylphenoxy)-N-[1-(2-anilino-2-oxyethyl)-4-piperidinyl]-N-ethylacetamide] | – | 89
21 | Cc1c(C)c(NCC(=O)N(C)C2CCN(Cc3ccncc3)CC2)c(C)c(C)c1N [Compound 114, 2-(4-Amino-2,3,5,6-tetramethylanilino)-N-methyl-N-[1-(4-pyridylmethyl)-4-piperidinyl]acetamide] | 50 | –
22 | Cc1cc(OCC(=O)NC2CCN(CCc3ccccc3)CC2)c(C)c(C)c1N [Compound 97, 2-(4-Amino-2,3,5-trimethylphenoxy)-N-(1-(2-phenethyl)-4-piperidinyl)acetamide] | – | 119
23 | Cc1cc(OC(C)C(=O)NC2CCN(C/C=C/c3ccccc3)CC2)c(C)c(C)c1N (stereo not drawn) [Compound 84, 2-(4-Amino-2,3,5-trimethylphenoxy)-N-[1-(3-phenyl-2-(E)-propenyl)-4-piperidinyl]propamide] | – | 87
24 | Cc1cc(OC(C)C(=O)NC2CCN(CC(=O)NC3(c4ccccc4)CC3)CC2)c(C)c(C)c1N (stereo not drawn) [Compound 102, 2-(4-Amino-2,3,5-trimethylphenoxy)-N-[1-(2-(1-phenylcyclopropyl)amino-2-oxyethyl)-4-piperidinyl]propamide] | – | 89
25 | Cc1cc(OC(C)(C)C(=O)N(C)C2CCN(CC(=O)NC3(c4ccccc4)CC3)CC2)c(C)c(C)c1N [Compound 69, 2-(4-Amino-2,3,5-trimethylphenoxy)-2-methyl-N-methyl-N-[1-(2-(1-phenylcyclopropyl)amino-2-oxyethyl)-4-piperidinyl]propamide] | – | 68
26 | Cc1cc(OCC(=O)NC2CCN(C/C=C/c3ccccc3)CC2)c(C)c(C)c1N [Compound 86, 2-(4-Amino-2,3,5-trimethylphenoxy)-N-[1-(3-phenyl-2-(E)-propenyl)-4-piperidinyl]acetamide] | 127 | –
27 | CCN(C(=O)CNc1c(C)c(C)c(N)c(C)c1C)C1CCN(C/C=C/c2ccccc2)CC1 [Compound 78, 2-(4-Amino-2,3,5,6-tetramethylanilino)-N-ethyl-N-[1-(3-phenyl-2-(E)-propenyl)-4-piperidinyl]acetamide] | 96 | –
28 | Cc1cc(OC(C)C(=O)NC2CCN(CC3(c4ccccc4)CC3)CC2)c(C)c(C)c1N (stereo not drawn) [Compound 101, 2-(4-Amino-2,3,5-trimethylphenoxy)-N-[1-(1-phenyl-1-cyclopropane)methyl-4-piperidinyl]propamide] | – | 138
29 | Cc1cc(OC(C)(C)C(=O)NC2CCN(CC(=O)Nc3c(C)cccc3C)CC2)c(C)c(C)c1N [Compound 98, 2-(4-Amino-2,3-5-trimethylphenoxy)-2-methyl-N-[1-(2-(2,6-dimethylanilino)-2-oxyethyl)-4-piperidinyl]propamide] | – | 120
30 | Cc1cc(OC(C)(C)C(=O)N(C)C2CCN(CC(=O)Nc3cccc(Cl)c3C)CC2)c(C)c(C)c1N [Compound 48, 2-(4-Amino-2,3,5-trimethylphenoxy)-2-methyl-N-[1-(2-(3-chloro-2-methyl)anilino-2-oxyethyl)-4-piperidinyl]-N-methylpropamide] | – | 207
